Starred links: 1 amine or outer side, 2 acyl side, 3 side chain; linkers in the order of their positions; H or OH if unused. Non-standard residues stand in square brackets, D forms with d. Residues, ends and D or L forms follow the SMILES beside them. *: point of attachment. X2 = CCCCCCCCCCCC(=O)NCCOCCOCCOCCOCCOCCn1cc(CC(=O)*)nn1; cPrCO(1-aminomethyl) = O=C(C1(CN[*:1])CC1)[*:2]; X16 = O=C(CCC(=O)[*:2])[C@H](Cc1ccccc1)N[*:1]; Ala(4-thiazolyl) = N[C@@H](Cc1cscn1)C(=O)O; PEG8 = NCCOCCOCCOCCOCCOCCOCCOCCOCCC(=O)O; dAla(2-furyl) = N[C@H](Cc1ccco1)C(=O)O; dPhe(4-I) = N[C@H](Cc1ccc(I)cc1)C(=O)O; X9 = CC(C)CC(C(=O)[*:2])C(=S)NCN[*:1]; Arg(Me) = CNC(=N)NCCC[C@H](N)C(=O)O; Palmitoyl = CCCCCCCCCCCCCCCC(=O)*; Hyp = O=C(O)[C@@H]1C[C@@H](O)CN1; Cba = N[C@@H](CC1CCC1)C(=O)O; Nonanoyl = CCCCCCCCC(=O)*; Ac6c = NC1(C(=O)O)CCCCC1; Ac5c = NC1(C(=O)O)CCCC1; Aze = O=C(O)[C@@H]1CCN1; Thp = NC1(C(=O)O)CCOCC1; Deg = CCC(N)(CC)C(=O)O; AEEA = NCCOCCOCC(=O)O; azaGly = NNC(=O)O; βAla = NCCC(=O)O
molecular target: T1, human kiss1 receptor (GPR54) (Homo sapiens, UniProt Q969F8); test: Kiss1 receptor (GPR54) binding activity of agonists, FRET detection in NFAT-bla CHO-K1 cells; type: cell-based; details: GPR54; measured according to the method of effect Embodiment 1; preliminary data; read-out: Preliminary measurement data (GPR54) EC50
T1 construct: host or cells: NFAT-bla CHO-K1 cells (Chinese hamster ovary), purchased recombinant cell line
T1 sequence (Q969F8 whole entry): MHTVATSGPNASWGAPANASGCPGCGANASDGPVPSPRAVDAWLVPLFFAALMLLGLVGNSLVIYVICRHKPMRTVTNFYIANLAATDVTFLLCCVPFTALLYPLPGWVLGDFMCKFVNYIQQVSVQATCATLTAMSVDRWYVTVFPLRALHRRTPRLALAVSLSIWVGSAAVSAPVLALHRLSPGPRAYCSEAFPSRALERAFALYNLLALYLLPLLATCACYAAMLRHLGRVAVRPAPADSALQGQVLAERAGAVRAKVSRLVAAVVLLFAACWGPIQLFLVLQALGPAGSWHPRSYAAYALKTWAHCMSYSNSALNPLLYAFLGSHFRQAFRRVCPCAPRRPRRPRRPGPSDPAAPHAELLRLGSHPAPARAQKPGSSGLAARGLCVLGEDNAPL
Protocol: Effect Embodiment 1 Determination of Kiss1 Receptor (GPR54) Binding Activity of Kiss1 Receptor (GPR54) Agonist
The binding activity test of each compound from the above the embodiments with kiss1 receptor (GPR54) was performed by fluorescence energy resonance transfer (FRET) detection technology to detect EC50 values of polypeptides and peptide analogs. The cells used in this experiment were NFAT-bla CHO-K1 cells (k1720, invitrogen, thermosher) that express human kiss1 receptor (GPR54). The specific operations were as follows:
Day 1: Seeding Cells in Plate
1. Microscope (CKX41, OLYMPUS), object lens×4 times, ocular lens×10 times. The cells were ensured in a good condition.
2. Digesting the cells, adding 3 ml of 0.05% pancreatin into a culture dish; cells were placed in a 37° C., 5% CO2 incubator for 2 minutes (Thermo Fisher). After the cells became round under the microscope, 7 ml of culture medium was added. The formula of culture medium was as follows: DMEM 90%, dialzedfbS10, NEAA 0.1 mM, HEPES 25 mM, Penicillin 100 U/ml, Streptomycin 100 μm/ml, pH7.3. After blowing and stirring, it was transferred to 15 mL centrifuge tube (430790, Corning). Centrifuge at 1000 rpm for 5 min (5810R, Eppendorf) and the supernatant was discard.
3. Adding 7 mL of culture medium (DMEM+0.1% BSA), it was pipetting into single cell suspension, after counting with Bio-RAD counter, the cell density was adjusted to 312,500 cells/ml.
4. Cells were inoculated into 384 well plates at 32 μL per well, and the cell number was controlled at 10000 cells/well. 32 μl of culture medium was added into the blank control.
Day 2: Dosing and Data Analysis
1) The compound to be tested was prepared into 50 mM working solution with DMSO.
2) 40 μl of the working solution of the compound to be tested was added into column 2 of row A-H of U-shaped 96-well plate (3797, comings), and 60 μl of DMSO was added into column 3-11. 20 μl of compound solution was sucked from the second column to the third column with a multichannel pipette blowing and stirring evenly; 20 μl of compound solution was absorbed from the third column with a multichannel pipette, then added into the fourth column, blowed and stirred to mix well; the compound was serially diluted 4-fold to a total of 10 concentrations. Column 1 and column 12 of 96-well plates were supplemented with 40 μl DMSO.
2. Intermediate Plate Configuration
1) AU-shaped 96-well plate was used, 199 μL of culture medium (DMEM+0.1% BSA) was added to each well, 1 μL of diluted compound (or DMSO) was sucked from 1000× compound plate and added into the 96-well plate at the corresponding position, blowed and stirred to mix well.
2) Homemade positive compounds and compounds to be tested were added. The cell culture plate was took out from the incubator and cells state was observed under microscope. Diluted compound in the intermediate plate or DMSO was added into the cell, 8 μl per well.
3) Cells were cultured in 37° C. and 5% CO2 for 4 hours.
3. The Substrate was Added to Detect the Binding of the Drug to the Receptor
1) 1 μmol/L CCF-4AM solution and buffer solution B, C, D were equilibrated to room temperature. LiveBLAZER™-FRET B/G Loading Kit (K1095, thermo Fisher) containing CCF-4AM and solution B, solution C, solution D were also available from Invitrogen (K1157, thermo Fisher).
2) 6× loading solution was prepared: 6 μl of CCF-4AM dissolved solution A, 60 μl of solution b, 904 μl of solution c, and 30 μl of solution D were pipetted into EP tube, blowed and stirred to mix well.
3) 8 μl of the above-mentioned liquid was sucked with a multichannel pipette, added into a 96-well plate, and incubated for 2 hours at room temperature.
4) The PerkinElmer detector was used to detect the luminous signals of each hole. FI mode, λex=409 nm, λem1=460 nm, λem2=530 nm.
4. Data Processing Using Graphpad Prism 5 (GraphPad Software. Inc)
Effective rate %=(Signal−Min)/(Max−Min)×100%.

EC50 [nM] | SMILES
0.32 | CNC(=N)NCCC[C@H](NC(=O)[C@H](CC(C)C)NC(=O)NNC(=O)[C@H](Cc1ccccc1)NC(=O)[C@@H](NC(=O)[C@H](CC(N)=O)NC(=O)C1(NC(C)=O)CCCCC1)[C@@H](C)O)C(=O)N[C@@H](Cc1c[nH]c2ccccc12)C(N)=O [YA-266, Ac-A6c-Asn-Thr-Phe-azaG-Leu-Arg(Me)-Trp-NH2] (Ac-[Ac6c]NTF[azaGly]L[Arg(Me)]W-NH2)
0.02 | CCCCCCCCCCCCCCCC(=O)NCCOCCOCCOCCOCCOCCOCCOCCOCCC(=O)NCC(=O)NCC(=O)N[C@H](Cc1ccc(O)cc1)C(=O)NC1(C(=O)N[C@@H](CC(N)=O)C(=O)N[C@H](C(=O)N[C@@H](Cc2ccccc2)C(=O)NNC(=O)N[C@@H](CC(C)C)C(=O)N[C@@H](CCCNC(=N)NC)C(=O)N[C@@H](Cc2c[nH]c3ccccc23)C(N)=O)[C@@H](C)O)CCCCC1 [YA-268, Palm-PEG8-G-G-DY-A6c-Asn-Thr-Phe-azaG-Leu-Arg(Me)-Trp-NH2] ({Palmitoyl-PEG8}-GG[dY][Ac6c]NTF[azaGly]L[Arg(Me)]W-NH2)
0.048 | CNC(=N)NCCC[C@H](NC(=O)[C@H](CC(C)C)NC(=O)CCC(=O)[C@H](Cc1ccccc1)NC(=O)[C@@H](NC(=O)[C@H](CC(N)=O)NC(=O)[C@@H]1C[C@@H](O)CN1C(=O)[C@@H](Cc1ccc(O)cc1)NC(C)=O)[C@@H](C)O)C(=O)N[C@@H](Cc1c[nH]c2ccccc12)C(N)=O [YA-274, M10 [Ac, D-Tyr45, Hyp46, des47, Thr49, (—CH2CH2CO—)51, Arg(Me)53, Trp54]] (Ac-[dY][Hyp]NT[X16]L[Arg(Me)]W-NH2; C-terminus assumed)
0.46 | CNC(=N)NCCC[C@H](NC(=O)[C@H](CC(C)C)NC(=O)C1(NC(=O)[C@H](Cc2ccccc2)NC(=O)[C@@H](NC(=O)[C@H](CC(N)=O)NC(=O)[C@@H]2C[C@@H](O)CN2C(=O)[C@@H](Cc2ccc(O)cc2)NC(C)=O)[C@@H](C)O)CCCC1)C(=O)N[C@@H](Cc1c[nH]c2ccccc12)C(N)=O [YA-282, Ac-(D-Tyr)-Hyp-Asn-Thr-Phe-cycloLeu-Leu-Arg(Me)-Trp-NH2] (Ac-[dY][Hyp]NTF[Ac5c]L[Arg(Me)]W-NH2)
0.038 | CCCCCCCCCCCCCCCC(=O)NCCOCCOCCOCCOCCOCCOCCOCCOCCC(=O)NCC(=O)NCC(=O)N[C@H](Cc1ccc(O)cc1)C(=O)N1C[C@H](O)C[C@H]1C(=O)N[C@@H](CC(N)=O)C(=O)N[C@H](C(=O)N[C@@H](Cc1ccccc1)C(=O)N1CC[C@H]1C(=O)N[C@@H](CC(C)C)C(=O)N[C@@H](CCCNC(=N)NC)C(=O)N[C@@H](Cc1c[nH]c2ccccc12)C(N)=O)[C@@H](C)O [YA-287, Palm-PEG 8-Gly-Gly-D-Tyr-Hyp-Asn-Thr-Phe-Aze-Leu-Arg(Me)-Trp-NH2] ({Palmitoyl-PEG8}-GG[dY][Hyp]NTF[Aze]L[Arg(Me)]W-NH2)
0.31 | CNC(=N)NCCC[C@H](NC(=O)[C@H](CC(C)C)NC(=O)NNC(=O)[C@H](Cc1ccccc1)NC(=O)[C@@H](NC(=O)[C@H](CC(N)=O)NC(=O)[C@@H]1C[C@@H](O)CN1C(=O)[C@@H](Cc1ccc(O)cc1)NC(=O)CCNC(=O)CCNC(=O)[C@H](CCC(N)=O)NC(=O)[C@@H]1CCCN1C(=O)[C@H](CCCNC(=N)N)NC(=O)[C@H](CCCNC(=N)N)NC(=O)[C@H](CCCNC(=N)N)NC(=O)[C@H](CCC(N)=O)NC(=O)[C@H](CCCNC(=N)N)NC(=O)[C@H](CCCNC(=N)N)NC(=O)[C@H](CCCCN)NC(=O)[C@H](CCCCN)NC(=O)[C@H](CCCNC(=N)N)NC(=O)CNC(C)=O)[C@@H](C)O)C(=O)N[C@@H](Cc1c[nH]c2ccccc12)C(N)=O [YA-291, Ac-Gly-Arg-Lys-Lys-Arg-Arg-Gln-Arg-Arg-Pro-Gln-(Beta-Ala)-(Beta-Ala)-(D-Tyr)-Hyp-Asn-Thr-Phe-Azag-Leu-Arg(Me)-Trp-NH2] (Ac-GRKKRRQRRRPQ[βAla][βAla][dY][Hyp]NTF[azaGly]L[Arg(Me)]W-NH2)
0.02 | CCCCCCCCC(=O)NCCOCCOCC(=O)N[C@H](Cc1ccc(O)cc1)C(=O)N1C[C@H](O)C[C@H]1C(=O)N[C@@H](CC(N)=O)C(=O)N[C@H](C(=O)N[C@@H](Cc1ccccc1)C(=O)NNC(=O)N[C@@H](CC(C)C)C(=O)N[C@@H](CCCNC(=N)NC)C(=O)N[C@@H](Cc1c[nH]c2ccccc12)C(N)=O)[C@@H](C)O [YA-295, Nonanoyl-OEG-D-Tyr-Hyp-Asn-Thr-Phe-azaGly-Leu-Arg(Me)-Trp-NH2] ({Nonanoyl-AEEA}-[dY][Hyp]NTF[azaGly]L[Arg(Me)]W-NH2)
0.019 | CCCCCCCCCCCC(=O)NCCOCCOCCOCCOCCOCCn1cc(CC(=O)N[C@H](Cc2ccc(O)cc2)C(=O)N2C[C@H](O)C[C@H]2C(=O)N[C@@H](CC(N)=O)C(=O)N[C@H](C(=O)N[C@@H](Cc2ccccc2)C(=O)NCNC(=S)C(CC(C)C)C(=O)N[C@@H](CCCNC(=N)NC)C(=O)N[C@@H](Cc2c[nH]c3ccccc23)C(N)=O)[C@@H](C)O)nn1 (stereo partly drawn) [YA-348, M10 [Dodecanoyl-PEG5-1,2,3- Triazole cyclic-Acetyl, D-Tyr45, Hyp46, des47, Thr49, Gψ(NHCS)51, Arg(Me)53, Trp54]] (X2-[dY][Hyp]NTF[X9][Arg(Me)]W-NH2)
0.26 | CNC(=N)NCCC[C@H](NC(=O)[C@H](CC(C)C)NC(=O)C1(NC(=O)[C@H](Cc2ccccc2)NC(=O)[C@@H](NC(=O)[C@H](CC(N)=O)NC(=O)[C@@H]2C[C@@H](O)CN2C(=O)[C@@H](Cc2ccc(O)cc2)NC(C)=O)[C@@H](C)O)CCOCC1)C(=O)N[C@@H](Cc1c[nH]c2ccccc12)C(N)=O [YA-354, Ac-(D-Tyr)-Hyp-Asn-Thr-Phe-morpholino cyclic amino acid-Leu-Arg(Me)-Trp-NH2] (Ac-[dY][Hyp]NTF[Thp]L[Arg(Me)]W-NH2)
0.3 | CNC(=N)NCCC[C@H](NC(=O)[C@H](CC(C)C)NC(=O)[C@H](Cc1cscn1)NC(=O)[C@H](Cc1ccccc1)NC(=O)[C@@H](NC(=O)[C@H](CC(N)=O)NC(=O)[C@@H]1C[C@@H](O)CN1C(=O)[C@@H](Cc1ccc(O)cc1)NC(C)=O)[C@@H](C)O)C(=O)N[C@@H](Cc1c[nH]c2ccccc12)C(N)=O [YA-357, Ac-(D-Tyr)-Hyp-Asn-Thr-Phe-Beta-(thiazoly-4-yl)-L-Ala-Leu-Arg(Me)-Trp-NH2] (Ac-[dY][Hyp]NTF[Ala(4-thiazolyl)]L[Arg(Me)]W-NH2)
0.032 | CNC(=N)NCCC[C@H](NC(=O)[C@H](CC(C)C)NC(=O)NNC(=O)[C@H](Cc1ccccc1)NC(=O)[C@@H](NC(=O)[C@H](CC(N)=O)NC(=O)[C@@H]1C[C@@H](O)CN1C(=O)[C@@H](Cc1ccc(I)cc1)NC(C)=O)[C@@H](C)O)C(=O)N[C@@H](Cc1c[nH]c2ccccc12)C(N)=O [YA-358, Ac-(D-Phe(4-I))-Hyp-Asn-Thr-Phe-azaGly-Leu-Arg(Me)-Trp-NH2] (Ac-[dPhe(4-I)][Hyp]NTF[azaGly]L[Arg(Me)]W-NH2)
0.048 | CCCCCCCCCCCCCCCC(=O)NCCOCCOCCOCCOCCOCCOCCOCCOCCC(=O)NCC(=O)NCC(=O)N[C@H](Cc1ccc(I)cc1)C(=O)N1C[C@H](O)C[C@H]1C(=O)N[C@@H](CC(N)=O)C(=O)N[C@H](C(=O)N[C@@H](Cc1ccccc1)C(=O)NNC(=O)N[C@@H](CC(C)C)C(=O)N[C@@H](CCCNC(=N)NC)C(=O)N[C@@H](Cc1c[nH]c2ccccc12)C(N)=O)[C@@H](C)O [YA-366, Palm-PEG8-Gly-Gly-(D-Phe(4-I))-Hyp-Asn-Thr-Phe-AzaGly-Leu-Arg(Me)-Trp-NH2] ({Palmitoyl-PEG8}-GG[dPhe(4-I)][Hyp]NTF[azaGly]L[Arg(Me)]W-NH2)

same assay, conditions: human kiss1 receptor (GPR54), NFAT-bla CHO-K1 cells, FRET; preliminary data; method of effect Embodiment 1; read-out: Preliminary measurement data (GPR54) EC50

EC50 [nM] | SMILES
7.95 | CNC(=N)NCCC[C@H](NC(=O)[C@H](CC(C)C)NC(=O)C1(NC(=O)[C@H](Cc2ccccc2)NC(=O)[C@@H](NC(=O)[C@H](CC(N)=O)NC(=O)C2(NC(=O)[C@@H](Cc3ccco3)NC(C)=O)CCCCC2)[C@@H](C)O)CCCCC1)C(=O)N[C@@H](Cc1c[nH]c2ccccc12)C(N)=O [YA-272, Ac-3-(2-furyl)-D-alanine-A6c-Asn-Thr-Phe-A6c-Leu-Arg(Me)-Trp-NH2] (Ac-[dAla(2-furyl)][Ac6c]NTF[Ac6c]L[Arg(Me)]W-NH2)
1.7 | CNC(=N)NCCC[C@H](NC(=O)[C@H](CC(C)C)NC(=O)[C@H](CC1CCC1)NC(=O)[C@H](Cc1ccccc1)NC(=O)[C@@H](NC(=O)[C@H](CC(N)=O)NC(=O)[C@@H]1C[C@@H](O)CN1C(=O)[C@@H](Cc1ccc(O)cc1)NC(C)=O)[C@@H](C)O)C(=O)N[C@@H](Cc1c[nH]c2ccccc12)C(N)=O [YA-284, Ac-(D-Tyr)-Hyp-Asn-Thr-Phe-Cba-Leu-Arg(Me)-Trp-NH2] (Ac-[dY][Hyp]NTF[Cba]L[Arg(Me)]W-NH2)
42.6 | CNC(=N)NCCC[C@H](NC(=O)[C@H](CC(C)C)NC(=O)C1(CNC(=O)[C@H](Cc2ccccc2)NC(=O)[C@@H](NC(=O)[C@H](CC(N)=O)NC(=O)[C@@H]2C[C@@H](O)CN2C(=O)[C@@H](Cc2ccc(O)cc2)NC(C)=O)[C@@H](C)O)CC1)C(=O)N[C@@H](Cc1c[nH]c2ccccc12)C(N)=O [YA-289, Ac-(D-Tyr)-Hyp-Asn-Thr-Phe-ACPA-Leu-Arg(Me)-Trp-NH2] (Ac-[dY][Hyp]NTF[cPrCO(1-aminomethyl)]L[Arg(Me)]W-NH2)
2.2 | CNC(=N)NCCC[C@H](NC(=O)[C@H](CC(C)C)NC(=O)CCNC(=O)[C@H](Cc1ccccc1)NC(=O)[C@@H](NC(=O)[C@H](CC(N)=O)NC(=O)[C@@H]1C[C@@H](O)CN1C(=O)[C@@H](Cc1ccc(O)cc1)NC(C)=O)[C@@H](C)O)C(=O)N[C@@H](Cc1c[nH]c2ccccc12)C(N)=O [YA-337, Ac-(D-Tyr)-Hyp-Asn-Thr-Phe-BetaAla-Leu-Arg(Me)-Trp-NH2] (Ac-[dY][Hyp]NTF[βAla]L[Arg(Me)]W-NH2)
1.2 | CCC(CC)(NC(=O)[C@H](Cc1ccccc1)NC(=O)[C@@H](NC(=O)[C@H](CC(N)=O)NC(=O)[C@@H]1C[C@@H](O)CN1C(=O)[C@@H](Cc1ccc(O)cc1)NC(C)=O)[C@@H](C)O)C(=O)N[C@@H](CC(C)C)C(=O)N[C@@H](CCCNC(=N)NC)C(=O)N[C@@H](Cc1c[nH]c2ccccc12)C(N)=O [YA-355, Ac-(D-Tyr)-Hyp-Asn-Thr-Phe-Deg-Leu-Arg(Me)-Trp-NH2] (Ac-[dY][Hyp]NTF[Deg]L[Arg(Me)]W-NH2)
